Article PMC11484942, “Rumicidins are a family of mammalian host-defense peptides plugging the 70S ribosome exit tunnel” (Nature Communications, 2024)

Experiments:
E. coli 1057 WT = test: microbe, parasite or virus in culture; assay type: cell-based, Escherichia coli; conditions: MHB + 0.9% NaCl
Procedure: Minimum inhibitory concentrations (MIC) were determined by broth microdilution assay based on Clinical and Laboratory Standards Institute (CLSI) guidelines using BSA in the growth medium to minimize AMP nonspecific adsorption[49]. Bacterial test cultures were grown in the Mueller-Hinton broth (MHB, Sigma) at 37 °C to mid-log phase and then diluted with the 2× MH medium supplemented with 1.8% NaCl (or without salt) so that to reach a final cell concentration of 10^6 CFU/mL. 50 µL of the obtained bacterial suspension were added to aliquots of 50 µL of the peptide solutions serially diluted with sterilized 0.1% bovine serum albumin (BSA) in 96-well flat-bottom polystyrene microplates (Eppendorf #0030730011). […] To verify MIC values, the respiratory activity of the bacteria was determined. Briefly, 5 µL of 0.5 mg/mL resazurin (Sigma) was added to the wells after 24 h (or after 48 h for M. smegmatis) of incubation, and the plate was incubated for additional 3 h. In some cases, MICs were determined in the Lysogeny Broth (LB) or Middlebrook 7H9 medium. The reduction of resazurin to resorufin was recorded. […] The results were expressed as the median values determined based on at least three independent experiments performed in triplicate.

[1] = system: E. coli 1057 R2 (rpoS^Q3stop, macB^N470D); conditions: MHB + 0.9% NaCl
Method in brief: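 Broth microdilution (CLSI-based) used 10^6 CFU/mL mid-log cells in MHB with or without added NaCl, and peptides serially diluted in 0.1% BSA at 37 °C. Resistance induction used daily serial passage from sub-MIC wells, followed by 3 drug-free passages before the final MIC.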

Monocytes = test: Cytokine response, multiplex xMAP; assay type: cell-based, human; conditions: 2 µM peptide, 24 h
Procedure: (§1) The acute monocytic leukemia THP-1 cell line (ATCC TIB-202) was cultured in the complete RPMI 1640 medium (Invitrogen) containing 10% FBS, 1× antibiotic-antimycotic solution (Invitrogen), and 0.05 mM β-mercaptoethanol, in the CO2-incubator (5% CO2, 37 °C). THP-1 cells were differentiated into proinflammatory macrophages (MΦ1) according to the previously reported protocol. Primary peripheral blood mononuclear cells (PBMC) collected from a healthy donor were purchased from ATCC (PCS-800-011), thawed, and seeded into a 96-well plate one day prior to the experiment at a density of 2 × 10^5 cells/well. Two different cell subpopulations (monocytes and T-/B-/NK-lymphocytes) were isolated from PBMC based on their adherence ability. Macrophages MΦ1 were washed out and seeded into 96-well plates at a density of 10^5 cells/well one day prior to the experiment. The next day, medium in each well was replaced by a fresh complete RPMI 1640 medium with or without 2 μM of a tested peptide (rumicidin-1 or LL-37). Cell cultures were kept in a CO2-incubator (5% CO2, 37 °C) for 24 h. Culture supernatants were collected 24 h later and stored at −70 °C degrees less than one week prior to the assessment of analytes. 26 analytes were measured at a protein level by multiplex xMAP technology using the MILLIPLEX MAP Human Cytokine/Chemokine Magnetic Bead Immunology Panel kit (HCYTOMAG-60K-27, Merck): eotaxin-1/CCL11, TGFα, GM-CSF, IFNα2, IFNγ, IL-10, IL-12p40, IL-12p70, IL-15, sCD40L, IL-17A, IL-1RA, IL-1α, IL-9, IL-1β, IL-2, IL-3, IL-4, IL-5, IL-6, IL-7, IL-8/CXCL8, IP-10/CXCL10, RANTES/CCL5, TNFα, TNFβ. Multiplex-based assay read-out was performed using the MAGPIX system (Merck) with the xPONENT 4.2 software (Merck) in accordance with the manufacturer’s instruction with overnight incubation of the samples with primary antibodies. The final analysis was carried out with the MILLIPLEX Analyst v5.1 software (Merck). Measurements were performed twice for each sample. The release of the analytes in control and experimental samples were compared by unpaired two-sample t-test using GraphPad Prism v.8.0.1. The p values ≤ 0.05 were considered significant.

[2] = system: macrophages MΦ1 (THP-1 derived); test: Cytokine response, multiplex xMAP; assay type: cell-based, human; conditions: 2 µM peptide, 24 h
Procedure: as §1

Structure (SMILES): CC[C@H](C)[C@H](NC(=O)[C@H](CCCCN)NC(=O)[C@H](CCC(=O)O)NC(=O)[C@H](CCCCN)NC(=O)[C@H](CO)NC(=O)[C@H](CCCCN)NC(=O)[C@H](CCCNC(=N)N)NC(=O)[C@H](Cc1ccccc1)NC(=O)[C@H](Cc1ccccc1)NC(=O)[C@H](CC(=O)O)NC(=O)CNC(=O)[C@H](CC(C)C)NC(=O)[C@@H](N)CC(C)C)C(=O)NCC(=O)N[C@@H](CCCCN)C(=O)N[C@@H](CCC(=O)O)C(=O)N[C@@H](Cc1ccccc1)C(=O)N[C@@H](CCCCN)C(=O)N[C@@H](CCCNC(=N)N)C(=O)N[C@H](C(=O)N[C@H](C(=O)N[C@@H](CCC(N)=O)C(=O)N[C@@H](CCCNC(=N)N)C(=O)N[C@H](C(=O)N[C@@H](CCCCN)C(=O)N[C@@H](CC(=O)O)C(=O)N[C@@H](Cc1ccccc1)C(=O)N[C@@H](CC(C)C)C(=O)N[C@@H](CCCNC(=N)N)C(=O)N[C@@H](CC(N)=O)C(=O)N[C@@H](CC(C)C)C(=O)N[C@H](C(=O)N1CCC[C@H]1C(=O)N[C@@H](CCCNC(=N)N)C(=O)N[C@H](C(=O)N[C@@H](CCC(=O)O)C(=O)N[C@@H](CO)C(=O)O)[C@@H](C)O)C(C)C)[C@@H](C)CC)C(C)C)[C@@H](C)CC [LL-37]
- MIC (E. coli 1057 WT): 2 µM
- MIC [1]: 2 µM
- GM-CSF (Monocytes): 3,08 pg/ml
- IFNa2 (Monocytes): 34,74 pg/ml
- IFNg (Monocytes): 38,2 pg/ml
- IL-1RA (Monocytes): 168,96 pg/ml
- IL-1a (Monocytes): < 1.13 pg/mL
- IL-1b (Monocytes): < 2.88 pg/mL
- IL-2 (Monocytes): < 2.73 pg/mL
- IL-3 (Monocytes): 3,38 pg/ml
- IL-5 (Monocytes): < 2.74 pg/mL
- IL-6 (Monocytes): < 2.42 pg/mL
- IL-7 (Monocytes): 8,54 pg/ml
- IL-8 (Monocytes): 755,68 pg/ml
- IL-9 (Monocytes): < 3.08 pg/mL
- IL-10 (Monocytes): 4,1 pg/ml
- IL-12p40 (Monocytes): 17,59 pg/ml
- IL-12p70 (Monocytes): 5,7 pg/ml
- IL-15 (Monocytes): 4,8 pg/ml
- IP-10 (Monocytes): 897,33 pg/ml
- RANTES (Monocytes): 312,51 pg/ml
- TGF-a (Monocytes): < 2.64 pg/mL
- TNFa (Monocytes): 6,47 pg/ml
- TNFb (Monocytes): < 2.85 pg/mL
- sCD40L (Monocytes): 20,8 pg/ml
- GM-CSF [2]: 1,32 pg/ml
- IFNa2 [2]: 4,35 pg/ml
- IFNg [2]: < 1.31 pg/mL
- IL-1RA [2]: 20,52 pg/ml
- IL-1a [2]: < 1.13 pg/mL
- IL-1b [2]: 10,63 pg/ml
- IL-2 [2]: < 2.73 pg/mL
- IL-3 [2]: < 3.02 pg/mL
- IL-4 [2]: 38,61 pg/ml
- IL-5 [2]: < 2.74 pg/mL
- IL-6 [2]: < 2.42 pg/mL
- IL-7 [2]: < 2.06 pg/mL
- IL-8 [2]: 1188 pg/mL
- IL-9 [2]: < 3.08 pg/mL
- IL-10 [2]: 6,13 pg/ml
- IL-12p40 [2]: < 3.69 pg/mL
- IL-12p70 [2]: 0,58 pg/ml
- IL-15 [2]: 2,42 pg/ml
- IL-17A [2]: < 0.94 pg/mL
- IP-10 [2]: 282,01 pg/ml
- RANTES [2]: 715,62 pg/ml
- TGF-a [2]: < 2.64 pg/mL
- TNFa [2]: 9,49 pg/ml
- TNFb [2]: < 2.85 pg/mL
- sCD40L [2]: 3,22 pg/ml
